ChEMBL document CHEMBL1795320, “Synthesis and antibacterial activity of novel 4″-O-benzimidazolyl clarithromycin derivatives” (2011)
Values after ≈ are worked out from the molar mass of the structure shown.

How the values were obtained:
Type in all cases: functional
Streptococcus pneumoniae [1] = experiment: Ratio of clarithromycin MIC to compound MIC for erythromycin-resistant Streptococcus pneumoniae A22072 expressing mef gene
Streptococcus pneumoniae [2] = experiment: Antibacterial activity against erythromycin-resistant Streptococcus pneumoniae A22072 expressing mef gene by broth microdilution method
Streptococcus pneumoniae [3] = experiment: Antibacterial activity against erythromycin-susceptible Streptococcus pneumoniae ATCC 49619 by broth microdilution method
Staphylococcus aureus [4] = experiment: Ratio of clarithromycin MIC to compound MIC for erythromycin-susceptible Staphylococcus aureus ATCC 25923
Streptococcus pneumoniae [5] = experiment: Ratio of azithromycin MIC to compound MIC for erythromycin-resistant Streptococcus pneumoniae B1 expressing erm gene
Streptococcus pneumoniae [6] = experiment: Ratio of clarithromycin MIC to compound MIC for erythromycin-resistant Streptococcus pneumoniae B1 expressing erm gene
Streptococcus pneumoniae [7] = experiment: Antibacterial activity against erythromycin-resistant Streptococcus pneumoniae B1 expressing erm gene by broth microdilution method
Staphylococcus aureus [8] = experiment: Antibacterial activity against erythromycin-susceptible Staphylococcus aureus ATCC 25923 by broth microdilution method
Streptococcus pneumoniae [9] = experiment: Ratio of erythromycin MIC to compound MIC for erythromycin-resistant Streptococcus pneumoniae A22072 expressing mef gene
Streptococcus pneumoniae [10] = experiment: Ratio of erythromycin MIC to compound MIC for erythromycin-resistant Streptococcus pneumoniae B1 expressing erm gene
Streptococcus pneumoniae [11] = experiment: Antibacterial activity against erythromycin-resistant Streptococcus pneumoniae AB11 expressing erm and mef gene by broth microdilution method
Streptococcus pneumoniae [12] = experiment: Ratio of clarithromycin MIC to compound MIC for erythromycin-susceptible Streptococcus pneumoniae ATCC 49619

Structure (SMILES): CC[C@H]1OC(=O)[C@H](C)[C@@H](O[C@H]2C[C@@](C)(OC)[C@@H](OC(=O)NNC(=O)c3ccc4[nH]c(-c5ccccc5OC)nc4c3)[C@H](C)O2)[C@H](C)[C@@H](O[C@@H]2O[C@H](C)C[C@H](N(C)C)[C@H]2O)[C@](C)(OC)C[C@@H](C)C(=O)[C@H](C)[C@@H](O)[C@]1(C)O
- Ratio (Streptococcus pneumoniae [1]): 133
- MIC (Streptococcus pneumoniae [2]): 0.03 µg/mL (≈ 0.0284 µM)
- MIC (Streptococcus pneumoniae [3]): 0.03 µg/mL (≈ 0.0284 µM)
- Ratio (Staphylococcus aureus [4]): 4
- Ratio (Streptococcus pneumoniae [5]): 64
- Ratio (Streptococcus pneumoniae [6]): 64
- MIC (Streptococcus pneumoniae [7]): 2 µg/mL (≈ 1.89 µM)
- MIC (Staphylococcus aureus [8]): 0.03 µg/mL (≈ 0.0284 µM)
- Ratio (Streptococcus pneumoniae [9]): 267
- Ratio (Streptococcus pneumoniae [10]): 64
- MIC (Streptococcus pneumoniae [11]): 16 µg/mL (≈ 15.1 µM)
- Ratio (Streptococcus pneumoniae [12]): 4
